Like-named read-outs stand apart in the source and are kept apart here.
Assays:
[1] = molecular target: T1, CYP3A4 (Homo sapiens, UniProt P08684); assay: Inhibition of hepatic drug-metabolizing enzymes in human liver microsomes (substrates midazolam and testosterone); type: in vitro ADME
T1 construct: human liver microsomes were used as the CYP450 enzyme source; from tissue; host or cells: human liver microsomes
Text: The main site of drug metabolism is the liver, and the main component of the mixed-function oxidase system present in the liver is the CYP450 enzyme. This enzyme system causes most clinically observed drug-drug interactions, which in turn leads to an increased incidence of adverse drug reactions. CYP450 is a group of supergene family composed of many isozymes, wherein CYP3A4 acts as a major metabolizing enzyme and is involved in the metabolism of nearly half of clinically used drugs. Similarly, CYP2C9 and CYP2C19 also act as important metabolizing enzymes and are involved in the metabolism of various drugs clinically. Therefore, evaluating the risk of drug-drug interactions by testing the inhibitory activity of compounds on CYP450 enzymes at an early stage can improve the safety of medication use.
In the present disclosure, human liver microsomes were used as the CYP450 enzyme source. The specific probe substrates for each CYP isoenzyme (wherein CYP3A4 used two substrates, midazolam and testosterone, denoted as CYP3A4-M and CYP3A4-T respectively) were incubated with a series of concentrations of the test compound in the presence of the cofactor NADPH. The production amount of metabolites of probe substrates in the incubation system was determined by LC-MS/MS, and the IC50 values of the test compound against each CYP450 enzyme subtype were calculated to evaluate its inhibitory effect on each CYP450 enzyme subtype. During the experiment, 49 µL of PBS, 50 µL of probe substrate, and 50 µL of human liver microsome working solution were sequentially added to the incubation system, followed by the addition of 1 µL of the test compound working solution at each concentration, and the mixture was mixed well. After pre-incubation at 37°C for 5 min, 50 µL of NADPH was added to initiate the reaction. After incubation for the corresponding time, an appropriate amount of ice-cold acetonitrile containing an internal standard was added to terminate the reaction. The mixture was vortexed to mix well, centrifuged, and the supernatant was taken. The supernatant was injected into LC-MS/MS to determine the production amount of metabolites of the probe substrate. Taking the enzyme activity at the 0-concentration point (characterized by the production amount of metabolites) as 100%, the percentage of residual enzyme activity of metabolites at different concentrations of the test compound was calculated. IC50 was calculated by the residual enzyme activity using Graphpad Prism software.

[2] = molecular target: T2, SOS1 (Homo sapiens, UniProt Q07889); assay: biochemical
T2 sequence (Q07889 1-1333): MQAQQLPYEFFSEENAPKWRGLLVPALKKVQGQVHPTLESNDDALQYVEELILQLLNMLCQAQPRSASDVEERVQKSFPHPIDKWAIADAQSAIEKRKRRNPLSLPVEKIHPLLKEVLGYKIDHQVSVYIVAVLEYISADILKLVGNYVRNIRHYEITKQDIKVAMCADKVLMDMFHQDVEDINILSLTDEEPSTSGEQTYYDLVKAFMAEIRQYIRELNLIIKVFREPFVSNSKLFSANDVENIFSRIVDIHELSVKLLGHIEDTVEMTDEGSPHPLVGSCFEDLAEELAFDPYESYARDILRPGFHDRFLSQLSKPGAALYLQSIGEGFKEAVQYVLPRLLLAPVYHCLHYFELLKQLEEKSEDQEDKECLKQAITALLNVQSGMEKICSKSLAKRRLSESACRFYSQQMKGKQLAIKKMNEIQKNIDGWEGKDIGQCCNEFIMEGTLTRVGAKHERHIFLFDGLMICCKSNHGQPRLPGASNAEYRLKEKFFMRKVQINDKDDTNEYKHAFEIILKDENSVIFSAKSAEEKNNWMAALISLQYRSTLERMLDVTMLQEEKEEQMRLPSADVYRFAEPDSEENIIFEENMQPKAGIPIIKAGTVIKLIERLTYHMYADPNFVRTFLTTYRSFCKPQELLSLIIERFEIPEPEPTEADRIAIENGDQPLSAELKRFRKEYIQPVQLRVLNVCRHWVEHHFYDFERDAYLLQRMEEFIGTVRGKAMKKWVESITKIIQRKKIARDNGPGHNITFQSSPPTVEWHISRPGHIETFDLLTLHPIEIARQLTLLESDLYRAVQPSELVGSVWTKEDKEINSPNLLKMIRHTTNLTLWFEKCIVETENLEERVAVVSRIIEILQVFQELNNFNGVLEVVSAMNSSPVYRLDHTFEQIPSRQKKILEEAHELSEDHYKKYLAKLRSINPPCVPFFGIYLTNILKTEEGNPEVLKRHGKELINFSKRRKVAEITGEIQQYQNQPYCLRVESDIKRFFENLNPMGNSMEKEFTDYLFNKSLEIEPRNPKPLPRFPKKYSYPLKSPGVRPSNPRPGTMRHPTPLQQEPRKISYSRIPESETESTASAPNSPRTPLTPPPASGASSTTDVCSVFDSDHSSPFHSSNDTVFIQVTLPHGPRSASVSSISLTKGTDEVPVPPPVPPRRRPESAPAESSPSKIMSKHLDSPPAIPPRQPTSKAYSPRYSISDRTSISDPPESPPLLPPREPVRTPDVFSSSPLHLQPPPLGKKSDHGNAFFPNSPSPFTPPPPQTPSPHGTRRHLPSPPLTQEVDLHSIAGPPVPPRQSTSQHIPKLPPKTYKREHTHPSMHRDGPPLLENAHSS

[3] = substrate midazolam, read-out: Inhibitory activity on drug-metabolizing enzymes (IC50, µM) CYP3A4-M
[4] = substrate testosterone, read-out: Inhibitory activity on drug-metabolizing enzymes (IC50, µM) CYP3A4-T

T1 sequence (P08684 whole entry): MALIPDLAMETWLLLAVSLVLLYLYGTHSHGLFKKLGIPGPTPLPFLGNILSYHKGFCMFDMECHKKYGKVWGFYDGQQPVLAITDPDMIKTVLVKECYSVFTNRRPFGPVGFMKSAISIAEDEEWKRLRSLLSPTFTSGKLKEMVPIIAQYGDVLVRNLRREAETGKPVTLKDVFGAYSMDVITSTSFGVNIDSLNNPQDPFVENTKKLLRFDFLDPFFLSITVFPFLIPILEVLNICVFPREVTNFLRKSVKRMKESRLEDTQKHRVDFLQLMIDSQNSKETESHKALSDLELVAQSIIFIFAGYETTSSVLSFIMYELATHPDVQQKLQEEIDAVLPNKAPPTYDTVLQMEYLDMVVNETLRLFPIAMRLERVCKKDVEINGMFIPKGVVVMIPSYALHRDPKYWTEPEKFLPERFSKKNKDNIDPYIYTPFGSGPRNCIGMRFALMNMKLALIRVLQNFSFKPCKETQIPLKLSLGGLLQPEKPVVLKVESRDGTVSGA

SMILES	IC50 [1, 3]	IC50 [1, 4]	IC50 [2]	IC50 ([1]; Inhibitory activity on drug-metabolizing enzymes (IC50, µM) CYP3A4-M, substrate midazolam)	IC50 ([1]; Inhibitory activity on drug-metabolizing enzymes (IC50, µM) CYP3A4-T, substrate testosterone)
CNc1nnc(N[C@H](C)c2cccc(C(F)F)c2F)c2cn(C3(C)CC3)c(=O)cc12.O=CO [Example 9, (R)-4-((1-(3-(difluoromethyl)-2-fluorophenyl)ethyl)amino)-1-(methylamino)-6-(1-methylcyclopropyl) pyrido[3,4-d]pyridazin-7(6H)-one formate]	> 10 µM	> 10 µM	0.0045 µM	–	–
CC(C)Nc1nnc(N[C@H](C)c2cccc(C(F)F)c2F)c2cn(C3(C)CC3)c(=O)cc12.O=CO [Example 12, (R)-4-((1-(3-(difluoromethyl)-2-fluorophenyl)ethyl)amino)-1-(isopropylamino)-6-(1-methylcyclopropyl) pyrido[3,4-d]pyridazin-7(6H)-one formate]	> 10 µM	> 10 µM	0.0049 µM	–	–
CNc1nnc(N[C@H](C)c2cccc(C(F)(F)F)c2C)c2cn(C3CC3)c(=O)cc12 [Example 52, (R)-6-cyclopropyl-4-((1-(2-methyl-3-(trifluoromethyl)phenyl)ethyl)amino)-1-(methylamino)pyrid o[3,4-d]pyridazin-7(6H)-one]	> 10 µM	> 10 µM	0.0057 µM	–	–
CNc1nnc(N[C@H](C)c2cccc(C(F)(F)F)c2C)c2cn(C3(C)CC3)c(=O)cc12 [Example 73, (R)-4-((1-(2-methyl-3-(trifluoromethyl)phenyl)ethyl)amino)-1-(methylamino)-6-(1-methylcyclopropyl) pyrido[3,4-d]pyridazin-7(6H)-one]	> 10 µM	> 10 µM	0.0044 µM	–	–
C[C@@H](Nc1nnc(N2CCN(C)CC2)c2cc(=O)n(C3CC3)cc12)c1cccc(C(F)F)c1F [Example 77]	–	–	0.0059 µM	7.81 µM	> 10 µM
C[C@@H](Nc1nnc(N2CCN(C)CC2)c2cc(=O)n(C3(C)CC3)cc12)c1cccc(C(F)F)c1F.O=CO [Example 80, (R)-4-((1-(3-(difluoromethyl)-2-fluorophenyl)ethyl)amino)-6-(1-methylcyclopropyl)-1-(4-methylpiperazin-1-yl)pyrido[3,4-d]pyridazin-7(6H)-one formate]	> 10 µM	> 10 µM	0.0045 µM	–	–
C[C@@H](Nc1nnc(N2CCN(C)CC2)c2cc(=O)n(C3CCC3)cc12)c1cccc(C(F)F)c1F [Example 88, (R)-6-cyclobutyl-4-((1-(3-(difluoromethyl)-2-fluorophenyl)ethyl)amino)-1-(4-methylpiperazin-1-yl)pyrido[3,4-d]pyridazin-7(6H)-one]	> 10 µM	> 10 µM	0.0045 µM	–	–
CCN1CCN(c2nnc(N[C@H](C)c3cccc(C(F)F)c3F)c3cn(C4CC(F)(F)C4)c(=O)cc23)CC1 [Example 98, (R)-6-(3,3-difluorocyclobutyl)-4-((1-(3-(difluoromethyl)-2-fluorophenyl)ethyl)amino)-1-(4-ethylpiperazin-1-yl)pyrido[3,4-d]pyridazin-7(6H)-one]	> 10 µM	> 10 µM	0.0043 µM	–	–
CCN1CCN(c2nnc(N[C@H](C)c3cccc(C(F)F)c3F)c3cn(N4CCOCC4)c(=O)cc23)CC1 [Example 109, (R)-4-((1-(3-(difluoromethyl)-2-fluorophenyl)ethyl)amino)-1-(4-ethylpiperazin-1-yl)-6-morpholinopyrido[3 ,4-d]pyridazin-7(6H)-one]	> 10 µM	> 10 µM	0.0042 µM	–	–
C[C@@H](Nc1nnc(N2CCN(C)CC2)c2cc(=O)n(N3CCOCC3)cc12)c1cccc(C(F)F)c1F [Example 110, (R)-4-((1-(3-(difluoromethyl)-2-fluorophenyl)ethyl)amino)-1-(4-methylpiperazin-1-yl)-6-morpholinopyrido[3 ,4-d]pyridazin-7(6H)-one]	> 10 µM	> 10 µM	0.0033 µM	–	–
CC(C)N1CCN(c2nnc(N[C@H](C)c3cccc(C(F)F)c3F)c3cn(N4CCOCC4)c(=O)cc23)CC1 [Example 111, (R)-4-((1-(3-(difluoromethyl)-2-fluorophenyl)ethyl)amino)-1-(4-isopropylpiperazin-1-yl)-6-morpholinopyrido[3 ,4-d]pyridazin-7(6H)-one]	> 10 µM	> 10 µM	0.0044 µM	–	–
CCN1CCN(c2nnc(N[C@H](C)c3cccc(C(F)F)c3F)c3cn(C4CCC4)c(=O)cc23)CC1 [Example 112, (R)-6-cyclobutyl-4-((1-(3-(difluoromethyl)-2-fluorophenyl)ethyl)amino)-1-(4-ethylpiperazin-1-yl)pyrido[3,4-d]pyridazin-7(6H)-one]	> 10 µM	> 10 µM	0.005 µM	–	–
C[C@@H](Nc1nnc(N2CCN(C3CCCC3)CC2)c2cc(=O)n(N3CCOCC3)cc12)c1cccc(C(F)F)c1F [Example 120, (R)-4-((1-(3-(difluoromethyl)-2-fluorophenyl)ethyl)amino)-1-(4-cyclopentylpiperazin-1-yl)-6-morpholinopyrido[3 ,4-d]pyridazin-7(6H)-one]	> 10 µM	> 10 µM	0.0041 µM	–	–
CCN1CCN(c2nnc(N[C@H](C)c3cccc(C(F)F)c3F)c3cn(C4(C)CC4)c(=O)cc23)CC1 [Example 216, (R)-4-((1-(3-(difluoromethyl)-2-fluorophenyl)ethyl)amino)-1-(4-ethylpiperazin-1-yl)-6-(1-methylcyclopropyl) pyrido[3,4-d]pyridazin-7(6H)-one]	> 10 µM	> 10 µM	0.0046 µM	–	–
CC(C)N1CCN(c2nnc(N[C@H](C)c3cccc(C(F)F)c3F)c3cn(C4(C)CC4)c(=O)cc23)CC1 [Example 217, (R)-4-((1-(3-(difluoromethyl)-2-fluorophenyl)ethyl)amino)-1-(4-isopropylpiperazin-1-yl)-6-(1-methylcyclopropyl) pyrido[3,4-d]pyridazin-7(6H)-one]	> 10 µM	> 10 µM	0.0046 µM	–	–
C[C@@H](Nc1nnc(N2CCN(C(C)(C)C)CC2)c2cc(=O)n(C3(C)CC3)cc12)c1cccc(C(F)F)c1F.O=CO [Example 222, (R)-1-(4-(tert-butyl)piperazin-1-yl)-4-((1-(3-(difluoromethyl)-2-fluorophenyl)ethyl)amino)-6-(1-methylcyclopropyl) pyrido[3,4-d]pyridazin-7(6H)-one formate]	> 10 µM	> 10 µM	0.005 µM	–	–

Reference: EP4722213A1, “NITROGEN-CONTAINING FUNCTIONAL GROUP-SUBSTITUTED PYRIDAZINOPYRIDONE DERIVATIVE AND USE THEREOF” (Sichuan Huiyu Pharmaceutical Co., Ltd., priority 2023, dated 2024)
